# Tests used:
# human GSK-3β [1] = target: T1, human GSK-3β (Homo sapiens (Human), UniProt P49841); assay: Activity on human GSK-3β, substrate phosphorylation measured by LANCE technology; type: biochemical; conditions: LANCE phosphorylation assay; five concentrations 100 μM to 10 nM, duplicate; read-out: IC50
# Experimental: Activity on human GSK-3β was assessed using the following methods (according to Meijer et al., Chem. Biol., 2003-10:1255-1266).
# In a first screening assay, compounds were tested in duplicate at a concentration of 10 μM.
# Human recombinant enzyme GSK-3β was incubated for 90 minutes at 22° C. in the presence of compounds or vehicle in a reaction buffer containing ATP plus 100 nM unphosphorylated specific substrate peptide (Ulight-[…]-amide). Substrate phosphorylation was measured by LANCE technology (PerkinElmer, Conn., USA).
# The results, reported in the following Table 4, are expressed as a percent of inhibition of control specific activity obtained in the presence of the test compounds (as % inhibition at 10 μm).
# (§1) In a second assay, the same compounds were assayed at five concentrations ranging from 100 μM to 10 nM with ten-fold dilutions in duplicate. Compounds 1 to 7, 9, 11 and 13 to 26 were tested using the same first assay, compounds 8, 10, 12, and 27 to 31 were tested in another assay based on the binding and displacement of AlexaFluor® 647 labeled, ATP-competitive Kinase inhibitor scaffold using LanthaScreen™ TR-FRET technology Eu Kinase assay packet according to manufacturer's instruction (Life Technologies, Italy).
# (§2) The IC50 values (concentration causing a half maximal inhibition of control specific activity), reported in table 4, were determined by non-linear regression analysis of the inhibition curves generated with mean replicate values using Hill equation curve fitting.
# PCTAIRE1 kinase (h) = PCTAIRE1 kinase (h) (Homo sapiens (Human), UniProt Q00536); assay: Kinase selectivity panel and IC50 determination; type: biochemical; conditions: 10 μM, duplicate; read-out: % inhibition of control values, PCTAIRE1 kinase (h)
# PCTAIRE1 kinase (h), sequence (Q00536 whole entry): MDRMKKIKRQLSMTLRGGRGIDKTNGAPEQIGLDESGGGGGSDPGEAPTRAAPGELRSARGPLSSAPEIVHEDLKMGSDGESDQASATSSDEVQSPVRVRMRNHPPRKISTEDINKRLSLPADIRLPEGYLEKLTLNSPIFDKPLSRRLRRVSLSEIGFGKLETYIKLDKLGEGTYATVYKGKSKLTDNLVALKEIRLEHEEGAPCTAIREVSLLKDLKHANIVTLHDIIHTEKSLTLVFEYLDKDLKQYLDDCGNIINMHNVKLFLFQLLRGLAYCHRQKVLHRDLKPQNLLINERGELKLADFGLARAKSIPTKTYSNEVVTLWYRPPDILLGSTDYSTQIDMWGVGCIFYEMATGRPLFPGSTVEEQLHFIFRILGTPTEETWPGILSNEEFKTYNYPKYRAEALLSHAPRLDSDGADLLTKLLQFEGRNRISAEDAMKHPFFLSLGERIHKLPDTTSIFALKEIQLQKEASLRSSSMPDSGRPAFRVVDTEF
# Experimental: (§3) (a) Compound 1 was tested against a panel of 60 kinases in order to assess its selectivity. The assays were chosen taking into consideration the diversity of assay families.
# (§4) Human recombinant kinases were incubated in the presence of specific peptide substrates plus ATP for different times (10, 15, 30, 60 or 90 minutes) at 22° C. Phosphorylated substrate was detected by LANCE or HTRF technology (CISBIO, MA, USA).
# (§5) Compound 1 was tested at 10 μM in duplicate.
# (§6) The results are expressed as a percent of inhibition of control specific activity obtained in the presence of the test compound 1 and are reported in the following Table 5.
# (§7) Compound 1 was also assayed to determine the IC50 values for three different kinases (PCTAIRE1, DYRK1a, and CDK2) in comparison to Gsk3β. The assay was conducted with the same method described above in test I, second assay.
# (§8) (b) Compounds 7, 12, 21 and 24 were tested against the same panel of 60 kinases under the same conditions described above for compound 1.
# (§9) The results are expressed as a percent of inhibition of control specific activity obtained in the presence of the test compounds and are reported in the following Table 6.
# CDK2 (h) (cycA) = CDK2 (h) (cycA) (Homo sapiens (Human), UniProt P24941); assay: Kinase selectivity panel and IC50 determination; type: biochemical; conditions: 10 μM, duplicate; read-out: % inhibition of control values, CDK2 (h) (cycA)
# Experimental: as §3, §4, §5, §6, §7, §8, §9
# DYRK1a (h) = DYRK1a (h) (Homo sapiens (Human), UniProt Q13627); assay: Kinase selectivity panel and IC50 determination; type: biochemical; conditions: 10 μM, duplicate; read-out: % inhibition of control values, DYRK1a (h)
# Experimental: as §3, §4, §5, §6, §7, §8, §9
# MEK1/MAP2K1 (h) = MEK1/MAP2K1 (h) (Homo sapiens (Human), UniProt Q02750); assay: Kinase selectivity panel; type: biochemical; conditions: duplicate, read-out: % inhibition of control values, MEK1/MAP2K1 (h)
# MEK1/MAP2K1 (h), sequence (Q02750 whole entry): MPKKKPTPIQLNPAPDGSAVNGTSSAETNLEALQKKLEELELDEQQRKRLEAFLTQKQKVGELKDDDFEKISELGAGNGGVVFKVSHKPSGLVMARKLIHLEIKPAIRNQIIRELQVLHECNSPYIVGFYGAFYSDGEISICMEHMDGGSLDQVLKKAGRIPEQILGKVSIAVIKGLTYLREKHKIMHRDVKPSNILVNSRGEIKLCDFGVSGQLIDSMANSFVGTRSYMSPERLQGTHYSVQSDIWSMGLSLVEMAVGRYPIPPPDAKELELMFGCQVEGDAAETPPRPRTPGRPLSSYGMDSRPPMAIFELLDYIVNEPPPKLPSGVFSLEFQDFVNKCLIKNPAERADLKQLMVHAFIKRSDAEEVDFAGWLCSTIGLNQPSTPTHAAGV
# Experimental: as §3, §4, §5, §6, §8, §9
# ERK1 (h) = ERK1 (h) (Homo sapiens (Human), UniProt P27361); assay: Kinase selectivity panel; type: biochemical; conditions: duplicate, read-out: % inhibition of control values, ERK1 (h)
# ERK1 (h), sequence (P27361 whole entry): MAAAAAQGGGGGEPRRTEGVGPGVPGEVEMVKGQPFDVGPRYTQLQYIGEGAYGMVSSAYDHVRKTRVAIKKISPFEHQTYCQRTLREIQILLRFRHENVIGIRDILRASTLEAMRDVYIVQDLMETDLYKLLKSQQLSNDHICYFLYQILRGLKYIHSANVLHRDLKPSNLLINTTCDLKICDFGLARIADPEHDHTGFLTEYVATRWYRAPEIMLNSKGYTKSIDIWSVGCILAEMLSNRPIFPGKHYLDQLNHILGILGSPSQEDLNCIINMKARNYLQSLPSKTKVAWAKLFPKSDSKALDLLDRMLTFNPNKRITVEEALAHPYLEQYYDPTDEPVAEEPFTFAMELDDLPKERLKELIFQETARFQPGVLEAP
# Experimental: as §3, §4, §5, §6, §8, §9
# TAOK2 (TAO1) (h) = TAOK2 (TAO1) (h) (Homo sapiens (Human), UniProt Q9UL54); assay: Kinase selectivity panel; type: biochemical; conditions: duplicate, read-out: % inhibition of control values, TAOK2 (TAO1) (h)
# TAOK2 (TAO1) (h), sequence (Q9UL54 whole entry): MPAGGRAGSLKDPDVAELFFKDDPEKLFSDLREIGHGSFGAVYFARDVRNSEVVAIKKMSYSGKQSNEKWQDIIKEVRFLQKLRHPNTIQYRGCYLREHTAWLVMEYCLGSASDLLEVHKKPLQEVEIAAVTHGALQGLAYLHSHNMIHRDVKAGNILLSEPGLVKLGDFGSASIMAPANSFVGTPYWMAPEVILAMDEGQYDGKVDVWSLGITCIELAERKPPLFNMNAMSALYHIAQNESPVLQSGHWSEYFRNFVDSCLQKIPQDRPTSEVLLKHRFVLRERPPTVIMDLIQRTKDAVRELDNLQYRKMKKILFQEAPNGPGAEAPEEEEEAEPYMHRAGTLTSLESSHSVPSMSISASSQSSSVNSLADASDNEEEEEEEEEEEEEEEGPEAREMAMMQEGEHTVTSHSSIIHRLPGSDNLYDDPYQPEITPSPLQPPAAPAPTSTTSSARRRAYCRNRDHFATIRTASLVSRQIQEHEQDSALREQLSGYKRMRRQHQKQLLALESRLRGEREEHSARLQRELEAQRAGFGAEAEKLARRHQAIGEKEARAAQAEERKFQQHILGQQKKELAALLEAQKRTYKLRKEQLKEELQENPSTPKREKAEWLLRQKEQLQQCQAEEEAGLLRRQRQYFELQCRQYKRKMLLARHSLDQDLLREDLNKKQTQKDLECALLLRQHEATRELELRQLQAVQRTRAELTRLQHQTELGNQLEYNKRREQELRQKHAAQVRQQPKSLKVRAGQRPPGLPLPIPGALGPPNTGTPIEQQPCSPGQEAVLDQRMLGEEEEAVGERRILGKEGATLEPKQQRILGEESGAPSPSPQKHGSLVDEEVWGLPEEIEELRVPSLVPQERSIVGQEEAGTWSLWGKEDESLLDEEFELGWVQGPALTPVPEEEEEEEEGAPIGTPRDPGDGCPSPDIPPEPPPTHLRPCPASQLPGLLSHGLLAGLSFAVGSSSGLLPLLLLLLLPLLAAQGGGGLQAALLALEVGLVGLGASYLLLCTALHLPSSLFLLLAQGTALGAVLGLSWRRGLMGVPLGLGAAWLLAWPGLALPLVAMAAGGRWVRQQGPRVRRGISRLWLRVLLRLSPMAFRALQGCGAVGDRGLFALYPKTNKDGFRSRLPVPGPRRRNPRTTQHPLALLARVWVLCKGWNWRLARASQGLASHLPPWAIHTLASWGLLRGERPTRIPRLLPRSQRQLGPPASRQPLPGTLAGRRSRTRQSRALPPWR
# Experimental: as §3, §4, §5, §6, §8, §9
# Src kinase (h) = Src kinase (h) (Homo sapiens (Human), UniProt P12931); assay: Kinase selectivity panel; type: biochemical; conditions: duplicate, read-out: % inhibition of control values, Src kinase (h)
# Experimental: as §3, §4, §5, §6, §8, §9
# HGK (h) (MAP4K4) = HGK (h) (MAP4K4) (Homo sapiens (Human), UniProt O95819); assay: Kinase selectivity panel; type: biochemical; conditions: duplicate, read-out: % inhibition of control values, HGK (h) (MAP4K4)
# Experimental: as §3, §4, §5, §6, §8, §9
# GSK3beta (h) = GSK3beta (h) (Homo sapiens (Human), UniProt P49841); assay: Kinase selectivity panel; type: biochemical; conditions: for inhibition at 10 µM: duplicate, read-out: % inhibition of control values, GSK3beta (h); for Selectivity for GSK-3β compared to the other kinases of the panel: panel of 60 kinases, 10 μM
# GSK3beta (h), sequence (P49841 whole entry): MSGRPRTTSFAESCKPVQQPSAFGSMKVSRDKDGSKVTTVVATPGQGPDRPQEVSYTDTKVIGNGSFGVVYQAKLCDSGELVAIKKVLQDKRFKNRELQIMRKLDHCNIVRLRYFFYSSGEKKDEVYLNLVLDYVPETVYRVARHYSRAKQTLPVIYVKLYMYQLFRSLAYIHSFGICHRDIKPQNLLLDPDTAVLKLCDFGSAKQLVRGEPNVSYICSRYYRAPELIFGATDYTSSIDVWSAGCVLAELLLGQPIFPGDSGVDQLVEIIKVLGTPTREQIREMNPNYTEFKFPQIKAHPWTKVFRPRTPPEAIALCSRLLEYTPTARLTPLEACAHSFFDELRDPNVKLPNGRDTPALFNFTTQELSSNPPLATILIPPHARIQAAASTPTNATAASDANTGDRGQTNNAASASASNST
# Experimental: as §3, §4, §5, §6, §8, §9
# NEK1 (h) = NEK1 (h) (Homo sapiens (Human), UniProt Q96PY6); assay: Kinase selectivity panel; type: biochemical; conditions: duplicate, read-out: % inhibition of control values, NEK1 (h)
# Experimental: as §3, §4, §5, §6, §8, §9
# CDC2/CDK1 (h) (cycB) = CDC2/CDK1 (h) (cycB) (Homo sapiens (Human), UniProt P06493); assay: Kinase selectivity panel; type: biochemical; conditions: duplicate, read-out: % inhibition of control values, CDC2/CDK1 (h) (cycB)
# CDC2/CDK1 (h) (cycB), sequence (P06493 whole entry): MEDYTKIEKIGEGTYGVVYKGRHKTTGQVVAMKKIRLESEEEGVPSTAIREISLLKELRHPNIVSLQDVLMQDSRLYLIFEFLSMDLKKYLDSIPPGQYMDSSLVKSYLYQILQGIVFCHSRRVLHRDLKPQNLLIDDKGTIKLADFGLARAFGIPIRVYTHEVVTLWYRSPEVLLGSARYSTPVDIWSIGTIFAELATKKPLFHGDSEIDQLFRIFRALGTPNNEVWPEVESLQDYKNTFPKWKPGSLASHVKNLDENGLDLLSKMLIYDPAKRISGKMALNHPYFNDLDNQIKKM
# CDC2/CDK1 (h) (cycB), sequence (P14635 whole entry partner): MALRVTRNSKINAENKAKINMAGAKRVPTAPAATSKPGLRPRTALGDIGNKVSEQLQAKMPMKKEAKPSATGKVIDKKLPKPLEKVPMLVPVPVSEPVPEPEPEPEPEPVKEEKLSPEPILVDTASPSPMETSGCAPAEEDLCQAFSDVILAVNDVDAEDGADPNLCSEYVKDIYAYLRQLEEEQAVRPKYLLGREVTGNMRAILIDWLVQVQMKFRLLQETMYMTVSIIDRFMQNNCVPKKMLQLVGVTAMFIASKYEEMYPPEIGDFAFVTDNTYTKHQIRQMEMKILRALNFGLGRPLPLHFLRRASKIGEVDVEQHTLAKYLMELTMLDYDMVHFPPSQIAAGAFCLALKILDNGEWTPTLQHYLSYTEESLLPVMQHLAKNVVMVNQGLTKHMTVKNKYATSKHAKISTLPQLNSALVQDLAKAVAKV
# Experimental: as §3, §4, §5, §6, §8, §9
# TRKA (h) = TRKA (h) (Homo sapiens (Human), UniProt P04629); assay: Kinase selectivity panel; type: biochemical; conditions: duplicate, read-out: % inhibition of control values, TRKA (h)
# TRKA (h), sequence (P04629 33-796): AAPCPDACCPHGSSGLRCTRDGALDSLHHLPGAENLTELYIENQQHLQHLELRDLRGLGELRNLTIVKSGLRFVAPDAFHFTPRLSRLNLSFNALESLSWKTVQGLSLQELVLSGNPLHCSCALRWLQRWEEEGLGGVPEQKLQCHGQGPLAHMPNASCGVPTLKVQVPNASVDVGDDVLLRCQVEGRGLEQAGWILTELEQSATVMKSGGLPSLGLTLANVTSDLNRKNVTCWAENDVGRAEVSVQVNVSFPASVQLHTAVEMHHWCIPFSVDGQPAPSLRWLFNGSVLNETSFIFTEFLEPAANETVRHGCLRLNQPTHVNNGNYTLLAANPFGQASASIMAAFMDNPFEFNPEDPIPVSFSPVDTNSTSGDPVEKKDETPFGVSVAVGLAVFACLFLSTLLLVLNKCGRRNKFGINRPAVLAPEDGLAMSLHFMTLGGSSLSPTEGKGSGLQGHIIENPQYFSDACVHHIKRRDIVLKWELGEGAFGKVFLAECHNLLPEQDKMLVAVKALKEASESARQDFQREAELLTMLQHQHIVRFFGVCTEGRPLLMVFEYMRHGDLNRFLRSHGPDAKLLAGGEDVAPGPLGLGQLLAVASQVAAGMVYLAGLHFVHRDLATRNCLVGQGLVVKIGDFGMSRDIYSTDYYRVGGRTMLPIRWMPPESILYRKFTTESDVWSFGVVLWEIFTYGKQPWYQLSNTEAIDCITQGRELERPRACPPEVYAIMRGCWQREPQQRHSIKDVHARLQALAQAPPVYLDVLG
# Experimental: as §3, §4, §5, §6, §8, §9
# smMLCK (h) (MYLK) = smMLCK (h) (MYLK) (Homo sapiens (Human), UniProt Q15746); assay: Kinase selectivity panel; type: biochemical; conditions: duplicate, read-out: % inhibition of control values, smMLCK (h) (MYLK)
# Experimental: as §3, §4, §5, §6, §8, §9
# ERK2 (h) (P42mapk) = ERK2 (h) (P42mapk) (Homo sapiens (Human), UniProt P28482); assay: Kinase selectivity panel; type: biochemical; conditions: duplicate, read-out: % inhibition of control values, ERK2 (h) (P42mapk)
# ERK2 (h) (P42mapk), sequence (P28482 whole entry): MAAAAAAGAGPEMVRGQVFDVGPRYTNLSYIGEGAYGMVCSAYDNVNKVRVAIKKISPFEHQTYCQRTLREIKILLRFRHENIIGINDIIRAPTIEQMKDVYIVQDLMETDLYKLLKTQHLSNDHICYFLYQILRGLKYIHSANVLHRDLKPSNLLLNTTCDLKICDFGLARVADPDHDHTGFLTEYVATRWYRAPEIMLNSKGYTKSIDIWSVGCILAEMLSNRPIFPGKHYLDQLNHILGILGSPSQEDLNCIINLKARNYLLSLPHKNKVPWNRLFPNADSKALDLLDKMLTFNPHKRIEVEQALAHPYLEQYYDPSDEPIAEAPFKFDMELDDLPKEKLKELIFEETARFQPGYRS
# Experimental: as §3, §4, §5, §6, §8, §9
# IRK (h) (InsR) = IRK (h) (InsR) (Homo sapiens (Human), UniProt P06213); assay: Kinase selectivity panel; type: biochemical; conditions: duplicate, read-out: % inhibition of control values, IRK (h) (InsR)
# Experimental: as §3, §4, §5, §6, §8, §9
# CDK5/p35 (h) = CDK5/p35 (h) (Homo sapiens (Human), UniProt Q00535); assay: Kinase selectivity panel; type: biochemical; conditions: duplicate, read-out: % inhibition of control values, CDK5/p35 (h)
# Experimental: as §3, §4, §5, §6, §8, §9
# human GSK-3β [2] = target: T1, human GSK-3β; assay: LanthaScreen TR-FRET Eu Kinase binding and displacement assay; conditions: five concentrations 100 μM to 10 nM, duplicate
# Experimental: as §1, §2
# T1 sequence (P49841 whole entry): as the sequence (P49841 whole entry) above
SMILES,IC50 (human GSK-3β [1]),inhibition at 10 µM (PCTAIRE1 kinase (h)),inhibition at 10 µM (CDK2 (h) (cycA)),inhibition at 10 µM (DYRK1a (h)),inhibition at 10 µM (MEK1/MAP2K1 (h)),inhibition at 10 µM (ERK1 (h)),inhibition at 10 µM (TAOK2 (TAO1) (h)),inhibition at 10 µM (Src kinase (h)),inhibition at 10 µM (HGK (h) (MAP4K4)),inhibition at 10 µM (GSK3beta (h)),Selectivity for GSK-3β compared to the other kinases of the panel (GSK3beta (h)),inhibition at 10 µM (NEK1 (h)),inhibition at 10 µM (CDC2/CDK1 (h) (cycB)),inhibition at 10 µM (TRKA (h)),inhibition at 10 µM (smMLCK (h) (MYLK)),inhibition at 10 µM (ERK2 (h) (P42mapk)),inhibition at 10 µM (IRK (h) (InsR)),inhibition at 10 µM (CDK5/p35 (h)),IC50 (human GSK-3β [2])
"COC(=O)c1csc(CN2CCC(CNC(=O)c3n[nH]c4ccc(OC)cc34)CC2)n1 [Compound 7, Methyl 2-{[4-({[(5-methoxy-1H-indazol-3-yl)carbonyl]amino}methyl)piperidin-1-yl]methyl}-1,3-thiazole-4-carboxylate]",130 nM,2%,48%,88%,27%,31%,16%,9%,21%,96%,good selectivity profile,0%,6%,1%,26%,33%,0%,21%,
"O=C(O)c1coc(CN2CCC(CNC(=O)c3n[nH]c4ccc(-c5cccc(F)c5F)cc34)CC2)n1 [Compound 12, 2-({4-[({[5-(2,3-Difluorophenyl)-1H-indazol-3-yl]carbonyl}amino)methyl]piperidin-1-yl}methyl)-1,3-oxazole-4-carboxylic acid hydrate]",,42%,96%,99%,86%,85%,81%,15%,98%,100%,good affinity to GSK-3β when compared to most of other kinases of the same family,30%,77%,5%,36%,91%,0%,87%,10 nM

# — patent US9163013B2, “Use of 1H-indazole-3-carboxamide compounds as glycogen synthase kinase 3 beta inhibitors” (AZIENDE CHIMICHE RIUNITE ANGELINI FRANCESCO A.C.R.A.F. …, priority 2012, dated 2015)
